According to patent US7964607B2, “Pyrazolo[3,4-d]pyrimidine compounds” (Pfizer Inc., priority 2007, dated 2011):
Read-outs that look alike come from different tables or passages of the source.

Target: T1, human recombinant PDE9 enzyme (Homo sapiens, UniProt O76083)
T1 construct: made in house; host or cells: SF-9 insect cells
Assay: Phosphodiesterase 9 (PDE9) inhibitory activity, Scintillation Proximity (SPA) assay
Type: biochemical
Method: Phosphodiesterase 9 (PDE9) Inhibitory Activity The PDE9 assay was performed using the Phosphodiesterase Scintillation Proximity (SPA) assay (GE Healthcare Life Sciences). […] The human recombinant PDE9 enzyme was generated in SF-9 cells, the cell pellets were sonicated in buffer (20 mM TRIS, 2 mM benzamidine, 1 mM EDTA, 250 mM sucrose, 100 μM PMSF, pH 7.5 with HCl), centrifuged at 40,000×g for 20 min at 4° C. The supernatants were stored at −80° C. […] Test compounds were dissolved in DMSO, diluted in DI H2O and serially diluted in 20% DMSO/80% H2O, for a final concentration of 2% DMSO. For the assay the PDE9 was diluted with assay buffer such that 20% or less of the substrate was hydrolyzed to 5′GMP. Each assay well contained 10 μl of test compound or solvent, 40 μl of [^3H]CGMP and 50 μl of enzyme, background was determined by a high concentration of a PDE inhibitor. The assay was initiated with the addition of the enzyme and carried out at room temperature for 30 min. […] The plates were sealed, vortexed, allowed to set for >300 min, then counted in a Wallac TriLux MicroBeta LSC.

[1] = human recombinant PDE9 from SF-9 cells, 50 nM [3H]cGMP, room temperature, 30 min, additional compounds Ex. 115-228, read-out: G5678A (U):IC50
[2] = human recombinant PDE9 from SF-9 cells, 50 nM [3H]cGMP, room temperature, 30 min, Examples 3-114, read-out: G5678A (U): IC50

T1 sequence (O76083 whole entry): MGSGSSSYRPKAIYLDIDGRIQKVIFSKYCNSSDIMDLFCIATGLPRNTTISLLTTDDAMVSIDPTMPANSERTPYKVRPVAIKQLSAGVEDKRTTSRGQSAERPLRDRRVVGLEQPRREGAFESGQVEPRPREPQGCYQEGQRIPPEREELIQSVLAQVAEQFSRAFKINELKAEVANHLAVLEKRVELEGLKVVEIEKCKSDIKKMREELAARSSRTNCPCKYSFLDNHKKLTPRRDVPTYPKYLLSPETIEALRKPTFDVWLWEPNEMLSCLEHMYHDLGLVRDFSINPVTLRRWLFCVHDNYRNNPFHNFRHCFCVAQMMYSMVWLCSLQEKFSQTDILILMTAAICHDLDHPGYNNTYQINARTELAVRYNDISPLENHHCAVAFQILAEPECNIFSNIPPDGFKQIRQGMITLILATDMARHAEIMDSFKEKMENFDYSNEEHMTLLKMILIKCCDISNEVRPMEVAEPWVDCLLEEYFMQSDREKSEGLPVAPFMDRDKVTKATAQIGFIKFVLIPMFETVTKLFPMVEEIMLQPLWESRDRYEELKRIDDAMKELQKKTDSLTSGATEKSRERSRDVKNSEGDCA

IC50 [1] [nM]	IC50 [2] [nM]	SMILES	other results
59.9		C[C@@H]1CN(Cc2ccc(OC(F)F)cc2)C[C@H]1c1nc2c(cnn2C2CCCC2)c(=O)[nH]1 (racemic) [Example 159, 1-cyclopentyl-6-{(3,4-trans)-1-[4-(difluoromethoxy)benzyl]-4-methylpyrrolidin-3-yl}-1,5-dihydro-4H-pyrazolo[3,4-d]pyrimidin-4-one]	
64		CCOc1ccc(CN2C[C@@H](C)[C@H](c3nc4c(cnn4C4CCCC4)c(=O)[nH]3)C2)cc1 (racemic) [Example 173]	
	268	O=c1[nH]c(C2CCN(Cc3ccccc3)C2)nc2c1cnn2C1CCCC1 (stereo not drawn) [Example 42, 6-(1-benzylpyrrolidin-3-yl)-1-cyclopentyl-1,5-dihydro-4H-pyrazolo[3,4-d]pyrimidin-4-one]	
93.5		C[C@@H]1CN(Cc2ccc(F)cc2Cl)C[C@H]1c1nc2c(cnn2C2CCCC2)c(=O)[nH]1 (racemic) [Example 150, 6-[(3,4-trans)-1-(2-chloro 4-fluorobenzyl)-4-methylpyrrolidin-3-yl]-1-cyclopentyl-1,5-dihydro-4H-pyrazolo[3,4-] pyrimidin-4-one]	
29.8		C[C@@H]1CN(Cc2cccc(OC(F)F)c2)C[C@H]1c1nc2c(cnn2C2CCCC2)c(=O)[nH]1 (racemic) [Example 183, 1-cyclopentyl-6-{(3,4-trans)-1-[3-(difluoromethoxy)benzyl]-4-methylpyrrolidin-3-yl}-1,5-dihydro-4H-pyrazolo[3,4-d]pyrimidin-4-one]	
51.3		COc1ccncc1CN1C[C@@H](C)[C@H](c2nc3c(cnn3C3CCCC3)c(=O)[nH]2)C1 (racemic) [Example 171, 1-cyclopentyl-6-{(3,4-trans)-1-[(4-methoxypyridin-3-yl)methyl]-4-methylpyrrolidin-3-yl}-1,5-dihydro-4H-pyrazolo[3,4-d]pyrimidin-4-one]	
	57.1	C[C@@H]1CN(C(=O)c2ccccc2)C[C@H]1c1nc2c(cnn2C2CCCC2)c(=O)[nH]1 (racemic) [Example 6, 6-[(3,4-trans)-1-benzoyl-4-methylpyrrolidin-3-yl]-1-cyclopentyl-1,5-dihydro-4H-pyrazolo[3,4-d]pyrimidin-4-one]	
17.4		C[C@@H]1CN(Cc2ccc3c(c2)CCO3)C[C@H]1c1nc2c(cnn2C2CCCC2)c(=O)[nH]1 (racemic) [Example 216, 1-cyclopentyl-6-[(3,4-trans)-1-(2,3-dihydro-1-benzofuran-5-ylmethyl)-4-methylpyrrolidin-3-yl]-1,5-dihydro-4H-pyrazolo[3,4-d]pyrimidin-4-one]	
	5.08	CC(C)n1ncc2c(=O)[nH]c([C@@H]3CN(Cc4ccc5nccnc5c4)C[C@H]3C)nc21 [Example 36, 1-isopropyl-6-[(3S,4S)-4-methyl-1-(quinoxalin-6-ylmethyl)pyrrolidin-3-yl]-1,5-dihydro-4H-pyrazolo[3,4-d]pyrimidin-4-one]	
146		C[C@@H]1CN(CCCc2ccccc2)C[C@H]1c1nc2c(cnn2C2CCCC2)c(=O)[nH]1 (racemic) [Example 201, 1-cyclopentyl-6-[(3,4-trans)-4-methyl-1-(3-phenylpropyl)pyrrolidin-3-yl]-1,5-dihydro-4H-pyrazolo[3,4-d]pyrimidin-4-one]	
9.56		COc1cccc(CN2C[C@@H](C)[C@H](c3nc4c(cnn4C4CCCC4)c(=O)[nH]3)C2)c1 (racemic) [Example 204, 1-cyclopentyl-6-[(3,4-trans)-1-(3-methoxybenzyl)-4-methylpyrrolidin-3-yl]-1,5-dihydro-4H-pyrazolo[3,4-d]pyrimidin-4-one]	
	3.11	CC[C@@H]1CN(Cc2ccc(OC)nc2)C[C@H]1c1nc2c(cnn2C2CCOCC2)c(=O)[nH]1 [Example 108, 6-{(3S,4S)-4-ethyl-1-[(6-methoxypyridin-3-yl)methyl]pyrrolidin-3-yl}-1-(tetrahydro-2H-pyran-4-yl)-1,5-dihydro-4H-pyrazolo[3,4-d]pyrimidin-4-one]	
124		C[C@@H]1CN(Cc2ccc(Cl)cc2Cl)C[C@H]1c1nc2c(cnn2C2CCCC2)c(=O)[nH]1 (racemic) [Example 213, 1-cyclopentyl-6-[(3,4-trans)-1-(2,4-dichlorobenzyl)-4-methylpyrrolidin-3-yl]-1,5-dihydro-4H-pyrazolo[3,4-d]pyrimidin-4-one]	
	7.3	Cc1nccc(CN2C[C@@H](C)[C@H](c3nc4c(cnn4C4CCCC4)c(=O)[nH]3)C2)n1 [Example 53, 1-cyclopentyl-6-{(3S,4S)-4-methyl-1-[(2-methylpyrimidin-4-yl)methyl]pyrrolidin-3-yl}-1,5-dihydro-4H-pyrazolo[3,4-d]pyrimidin-4-one]	
		CC[C@@H]1CN(Cc2ccccc2)C[C@H]1c1nc2c(cnn2C2CCOCC2)c(=O)[nH]1 [97(b), 6-[(3S,4S)-1-benzyl-4-ethylpyrrolidin-3-yl]-1-(tetrahydro-2H-pyran-4-yl)-1,5-pyrazolo[3,4-d]pyrimidin-4-one]	IC50: 5.56 nM
	6.69	C[C@@H]1CN(Cc2ccc(C(F)(F)F)cc2)C[C@H]1c1nc2c(cnn2C2CCOCC2)c(=O)[nH]1 [Example 91, 6-{(3S,4S)-4-methyl-1-[4-(trifluoromethyl)benzyl]pyrrolidin-3-yl}-1-(tetrahydro-2H-pyran-4-yl)-1,5-dihydro-4H-pyrazolo[3,4-d]pyrimidin-4-one]	
	1.32	C[C@@H]1CN(Cc2ccc3nccnc3c2)C[C@H]1c1nc2c(cnn2C2CCCC2)c(=O)[nH]1 [Example 23, 1-cyclopentyl-6-[(3S,4S)-4-methyl-1-(quinoxalin-6-ylmethyl)pyrrolidin-3-yl]-1,5-dihydro-4H-pyrazolo[3,4-d]pyrimidin-4-one]	
25		COc1ccc(C)cc1CN1C[C@@H](C)[C@H](c2nc3c(cnn3C3CCCC3)c(=O)[nH]2)C1 (racemic) [Example 217, 1-cyclopentyl-6-[(3,4-trans)-1-(2-methoxy-5-methylbenzyl)-4-methylpyrrolidin-3-yl]-1,5-dihydro-4H-pyrazolo[3,4-d]pyrimidin-4-one]	
	3.98	COc1cccc(CN2C[C@@H](C)[C@H](c3nc4c(cnn4C4CCOCC4)c(=O)[nH]3)C2)c1 [Example 104, 6-[(3S,4S)-1-(3-methoxybenzyl)-4-methylpyrrolidin-3-yl]-1-(tetrahydro-2H-pyran-4-yl)-1,5-dihydro-4H-pyrazolo[3,4-d]pyrimidin-4-one]	
	1.24	C[C@@H]1CN(Cc2cnc3ccccc3c2)C[C@H]1c1nc2c(cnn2C2CCOCC2)c(=O)[nH]1 [Example 77, 6-[(3S,4S)-4-methyl-1-(quinolin-3-ylmethyl)pyrrolidin-3-yl]-1-(tetrahydro-2H-pyran-4-yl)-1,5-dihydro-4H-pyrazolo[3,4-d]pyrimidin-4-one]	
	9.46	C[C@@H]1CN(Cc2ccccc2)C[C@H]1c1nc2c(cnn2C2CCCC2)c(=O)[nH]1 [Example 3, 6-[(3S,4S)-1-benzyl-4-methylpyrrolidin-3-yl]-1-cyclopentyl-1,5-dihydro-4H-pyrazolo[3,4-d]pyrimidin-4-one]	
	7.45	Cc1cccnc1CN1C[C@@H](C)[C@H](c2nc3c(cnn3C3CCCC3)c(=O)[nH]2)C1 (racemic) [Example 27, 1-cyclopentyl-6-{(3,4-trans)-4-methyl-1-[(3-methylpyridin-2-yl)methyl]pyrrolidin-3-yl}-1,5-dihydro-4H-pyrazolo[3,4-d]pyrimidin-4-one]	
47.7		COc1ncccc1CN1C[C@@H](C)[C@H](c2nc3c(cnn3C3CCCC3)c(=O)[nH]2)C1 (racemic) [Example 138, 1-cyclopentyl-6-{(3,4-trans}-1-[(2-methoxypyridin-3-yl)methyl]-4-methylpyrrolidin-3-yl}-1,5-dihydro-4H-pyrazolo[3,4-d]pyrimidin-4-one]	
	6.29	CC(C)n1ncc2c(=O)[nH]c([C@@H]3CN(Cc4ccc5nccnc5c4)C[C@H]3C)nc21 (racemic) [Example 33, 1-isopropyl-6-[(3,4-trans)-4-methyl-1-(quinoxalin-6-ylmethyl)pyrrolidin-3-yl]-1,5-dihydro-4H-pyrazolo[3,4-d]pyrimidin-4-one]	
7.13		C[C@@H]1CN(Cc2ccc3nsnc3c2)C[C@H]1c1nc2c(cnn2C2CCCC2)c(=O)[nH]1 (racemic) [Example 208, 6-[(3,4-trans)-1-(2,1,3-benzothiadiazol-5-ylmethyl)-4-methylpyrrolidin-3-yl]-1-cyclopentyl-1,5-dihydro-4H-pyrazolo[3,4-d]pyrimidin-4-one]	
		C[C@@H]1CN(Cc2ccccc2F)C[C@H]1c1nc2c(cnn2C2CCOCC2)c(=O)[nH]1 [Example 98, 6-[(3S,4S)-1-(2-fluorobenzyl)-4-methylpyrrolidin-3-yl]-1-(tetrahydro-2H-pyran-4-yl)-1,5-dihydro-4H-pyrazolo[3,4-d]pyrimidin-4-one]	IC50: 7.93 nM
126		C[C@@H]1CN(Cc2c(F)cccc2Cl)C[C@H]1c1nc2c(cnn2C2CCCC2)c(=O)[nH]1 (racemic) [Example 117, 6-[(3,4-trans)-1-(2-chloro-6-fluorobenzyl)-4-methylpyrrolidin-3-yl]-1-cyclopentyl-1,5-dihydro-4H-pyrazolo[3,4-d]pyrimidin-4-one]	
